Results from patent US12534465B2, “5H-pyrrolo[3,2-d]pyrimidine-2,4-diamino compounds and antibody conjugates thereof” (SUTRO BIOPHARMA, INC., priority 2019, dated 2026).

How the values were obtained:
mouse TLR7 = target: T1, mouse TLR7 (Mus musculus, UniProt P58681); assay: HEK293-mouseTLR7 SEAP reporter assay (Example 8); format: cell-based; conditions: HEK293-mTLR7 SEAP reporter cells, 24 hrs
T1 construct: host or cells: HEK293
T1 sequence (P58681 27-1050): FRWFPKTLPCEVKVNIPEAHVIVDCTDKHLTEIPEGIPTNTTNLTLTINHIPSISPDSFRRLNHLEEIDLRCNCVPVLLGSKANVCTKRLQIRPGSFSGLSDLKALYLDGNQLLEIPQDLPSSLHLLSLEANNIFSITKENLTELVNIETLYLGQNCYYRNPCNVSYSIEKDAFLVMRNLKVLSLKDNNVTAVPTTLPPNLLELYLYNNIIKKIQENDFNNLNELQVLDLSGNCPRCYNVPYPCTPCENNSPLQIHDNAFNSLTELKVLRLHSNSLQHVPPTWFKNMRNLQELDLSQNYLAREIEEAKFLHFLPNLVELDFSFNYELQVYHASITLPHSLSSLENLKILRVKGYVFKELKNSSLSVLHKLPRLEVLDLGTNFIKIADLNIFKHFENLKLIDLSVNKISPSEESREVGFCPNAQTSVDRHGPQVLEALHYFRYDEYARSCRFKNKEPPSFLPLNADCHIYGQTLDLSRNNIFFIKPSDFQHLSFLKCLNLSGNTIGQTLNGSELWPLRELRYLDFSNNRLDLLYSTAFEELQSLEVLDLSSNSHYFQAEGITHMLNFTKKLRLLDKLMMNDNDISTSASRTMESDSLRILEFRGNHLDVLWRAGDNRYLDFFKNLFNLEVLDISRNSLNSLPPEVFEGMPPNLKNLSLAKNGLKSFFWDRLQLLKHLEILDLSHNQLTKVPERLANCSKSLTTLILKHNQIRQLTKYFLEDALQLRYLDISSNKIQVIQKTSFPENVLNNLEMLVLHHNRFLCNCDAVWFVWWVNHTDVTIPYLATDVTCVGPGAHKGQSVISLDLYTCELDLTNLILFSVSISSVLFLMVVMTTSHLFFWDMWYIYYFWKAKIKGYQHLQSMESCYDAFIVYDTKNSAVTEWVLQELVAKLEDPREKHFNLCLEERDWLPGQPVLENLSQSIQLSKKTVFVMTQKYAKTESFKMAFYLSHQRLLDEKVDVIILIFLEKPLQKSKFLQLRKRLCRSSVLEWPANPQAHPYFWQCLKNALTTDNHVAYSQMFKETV
Protocol: (§1) In this example, the in vitro activity of compounds to activate human TLR7 (or human TLR8 or mouse TLR7) pathway was evaluated on HEK293 reporter cells transfected with human TLR7 (or human TLR8 or mouse TLR7) and an inducible SEAP (secreted embryonic alkaline phosphatase) reporter gene. The SEAP reporter gene is placed under the control of the IFN-β minimal promoter fused to five NF-κB and AP-1-binding sites. Stimulation with a TLR7 agonist activates NF-κB and AP-1 which induces the production of SEAP. Levels of SEAP were determined by HEK-Blue Detection medium.
(§2) The in vitro activity of compounds on TLR7 (human and mouse) and TLR8 (human only) reporter cell lines was assessed as follows. 5-(2-methoxy-4-(piperazin-1-ylmethyl)benzyl)-N4-pentyl-5H-pyrrolo[3,2-d]pyrimidine-2,4-diamine (Compound 1) is a compound used for comparison and has the structure shown below:
(§3) HEK293-humanTLR7 (hTLR7), HEK293-mouseTLR7 (mTLR7) and HEK293-humanTLR8 (hTLR8) reporter cell lines were purchased from Invivogen and cell lines were maintained in the manufacturer's recommended culture medium with required supplemental antibiotics. On the day of assay, the cells were harvested with Accutase and counted by the Vi-CELL Cell Viability Analyzers. Cells were resuspended in HEK blue detection medium and a total of 10,000 cells were seeded in each well of a 384-well flat bottom plate. Serial dilutions of test compounds (1:4 serial dilution starting from 5 μM) were added into treatment wells and assay plates were cultured at 37° C. in a CO2 incubator for 24 hrs. The plates were then read by spectrophotometry at 640 nm. Data was fitted with non-linear regression analysis, using a log(inhibitor) vs. response-variable slope, 3-parameter fit with GraphPad Prism. There result was reported in Table 1 as EC50 (the midpoint of the curve, or concentration at which 50% of the maximum effect was observed).

human TLR7 = target: T2, human TLR7 (Homo sapiens, UniProt Q9NYK1); assay: HEK293-humanTLR7 SEAP reporter assay (Example 8); format: cell-based; conditions: HEK293-hTLR7 SEAP reporter cells, 24 hrs
T2 construct: host or cells: HEK293
T2 sequence (Q9NYK1 27-1049): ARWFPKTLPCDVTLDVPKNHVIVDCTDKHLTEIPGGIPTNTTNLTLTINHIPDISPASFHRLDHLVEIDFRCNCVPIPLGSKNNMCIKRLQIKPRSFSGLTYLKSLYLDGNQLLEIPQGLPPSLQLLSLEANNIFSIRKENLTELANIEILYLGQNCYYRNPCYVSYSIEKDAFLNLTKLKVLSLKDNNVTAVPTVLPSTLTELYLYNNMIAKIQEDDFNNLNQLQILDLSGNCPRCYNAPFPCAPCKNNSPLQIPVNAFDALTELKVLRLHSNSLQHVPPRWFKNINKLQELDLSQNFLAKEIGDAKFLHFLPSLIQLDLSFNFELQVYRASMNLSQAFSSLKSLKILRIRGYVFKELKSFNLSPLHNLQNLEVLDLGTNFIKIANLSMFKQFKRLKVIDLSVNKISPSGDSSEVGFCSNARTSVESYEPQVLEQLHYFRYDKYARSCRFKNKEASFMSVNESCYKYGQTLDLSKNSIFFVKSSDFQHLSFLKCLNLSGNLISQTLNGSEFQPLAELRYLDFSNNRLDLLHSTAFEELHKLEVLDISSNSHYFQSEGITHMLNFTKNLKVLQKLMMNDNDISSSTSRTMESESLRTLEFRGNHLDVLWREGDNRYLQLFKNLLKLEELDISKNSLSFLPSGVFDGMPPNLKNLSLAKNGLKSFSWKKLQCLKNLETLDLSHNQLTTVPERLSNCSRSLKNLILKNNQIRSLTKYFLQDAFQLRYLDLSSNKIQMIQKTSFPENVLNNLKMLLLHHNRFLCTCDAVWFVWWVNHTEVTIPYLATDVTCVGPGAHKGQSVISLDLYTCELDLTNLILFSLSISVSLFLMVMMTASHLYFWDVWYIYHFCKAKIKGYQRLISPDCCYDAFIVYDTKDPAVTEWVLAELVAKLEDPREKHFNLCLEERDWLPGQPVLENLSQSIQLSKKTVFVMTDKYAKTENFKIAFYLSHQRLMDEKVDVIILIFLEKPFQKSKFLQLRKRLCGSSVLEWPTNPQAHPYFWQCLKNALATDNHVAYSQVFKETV
Protocol: as §1, §2, §3

EC50 (mouse TLR7) | EC50 (human TLR7) | Compound
3.7 nM | 1.5 nM | CCCCCNc1nc(N)nc2ccn(Cc3ccc(CN4CC5(CNCCO5)C4)cc3OC)c12 [Compound 10, 5-[[2-methoxy-4-(5-oxa-2,8-diazaspiro[3.5]nonan-2-ylmethyl)phenyl]methyl]-N4-pentyl-pyrrolo[3,2-d]pyrimidine-2,4-diamine]
4.6 nM | 1.9 nM | CCCCCNc1nc(N)nc2ccn(Cc3ccc(CN4CCNCC4)cc3OC)c12 [Compound 1, 5-(2-methoxy-4-(piperazin-1-ylmethyl)benzyl)-N4-pentyl-5H-pyrrolo[3,2-d]pyrimidine-2,4-diamine, reference compound]

Compound | EC50 (mouse TLR7) | EC50 (human TLR7)
CCCCCNc1nc(N)nc2ccn(Cc3ccc(CN4CC(NC)C4)cc3OC)c12 [Compound 2, 5-(2-methoxy-4-((3-(methylamino)azetidin-1-yl)methyl)benzyl)-N4-pentyl-5H-pyrrolo[3,2-d]pyrimidine-2,4-diamine] | 10.2 nM | 1.6 nM
